Source: patent US20230093476A1, “SUBSTITUTED FUSED IMIDAZOLE DERIVATIVES AND METHODS OF TREATING REFRACTIVE OCULAR DISORDERS” (vTv Therapeutics LLC, priority 2020, published 2023)

Legend:
[1] = tested on: lens from aged mice; assay: In vitro lens elasticity, coverslip method, cultured lenses from aged mice; assay type: cell-based, C57BL/6J mice; conditions: for Change in Diameter (μm) (Mean ± S.E.): about 14 hours incubation at 37° C., mouse lens; for efficacy compared with positive control groups using lipoic acid: 50 μM and 500 μM; for lens elasticity relative to control: both concentrations of 50 μM and 500 μM; for dose dependence of elasticity increase: from the lower dose (50 μM) to the higher dose (500 μM)
Description: Test compounds (Examples 46 and 134) at 50 μM and 500 μM, Positive Control of Lipoic Acid at 50 μM and 500 μM, and control treatment were administered to lenses (12 per group) according to methods described in Invest Ophthalmol Vis Sci. 2016; 57:2851-2863. Briefly, seven month old C57BL/6J mice (male) were euthanized by CO2 overdose. Lenses were removed and placed in culture medium. Lenses were incubated for about 2 hours at 37° C. The medium was replaced with fresh medium supplemented with test compounds or with fresh medium. After about 14 hours incubation at 37° C., lenses were removed from culture medium.
(§1) Measurement of lens elasticity was performed according to the methods described in Invest Ophthalmol Vis Sci. 2016; 57:2851-2863. Briefly, lenses were placed on slides and photographed. A second photograph was taken after a coverslip was placed on the lens. Equatorial diameters changed by the coverslips placed on the lens were analyzed.

[2] = tested on: mouse lens; assay: Lens elasticity under 2-week repeated topical instillation (TID), coverslip method; assay type: in vivo, C57BL/6J mice; conditions: for efficacy compared with 1.5% solutions comprising LACE: 0.5% and 1.5% solutions; for efficacy compared with 1.5% solutions comprising LACE / Right Eye Change in Diameter (μm) (Mean ± S.E.): TID; for efficacy compared with 1.5% solutions comprising LACE / Right Eye Change in Diameter (μm) (Mean ± S.E.) / elasticity of the mouse lenses: 2 weeks; for Right Eye Change in Diameter (μm) (Mean ± S.E.): treated right eye; for elasticity of the mouse lenses: repeated instillation of 0.15%, 0.5%, 1.5% solutions TID
Description: Test compounds (Examples 46 and 134), positive control of Lipoic Acid Choline Ester (LACE), and control treatment were topically administered to right eyes according to methods described in Invest Ophthalmol Vis Sci. 2016; 57:2851-2863. Briefly, eight month old C57BL/6J mice (male) were treated with 2.5 μL of each test sample three times per day (TID) at about 4-hour intervals in the right eyes for 2 weeks. The left eyes were used as untreated controls. Each treatment group included 10 mice, and the vehicle group included 5 mice.
as §1, with “after 2-week treatment, mice were euthanized by CO2 overdose. Lenses were removed and analyzed for changes in elasticity. Lenses” for “lenses”

[3] = Table 3, left eye = untreated control eye of mice given 1.5% solution in right eye
[4] = Table 2, left eye = untreated control eye of mice given 1.5% solution in right eye

Row | Structure (SMILES) | Change in Diameter (μm) (Mean ± S.E.) ([1]; 50 μM) | Change in Diameter (μm) (Mean ± S.E.) ([1]; 500 μM) | efficacy compared with positive control groups using lipoic acid [1] | lens elasticity relative to control [1] | dose dependence of elasticity increase [1] | efficacy compared with 1.5% solutions comprising LACE [2] | Right Eye Change in Diameter (μm) (Mean ± S.E.) ([2]; Table 3, 0.15% solution) | Right Eye Change in Diameter (μm) (Mean ± S.E.) ([2]; Table 3, 0.5% solution) | Right Eye Change in Diameter (μm) (Mean ± S.E.) ([2]; Table 3, 1.5% solution) | Left Eye Change in Diameter (μm) (Mean ± S.E.) ([2]; Table 3, left eye = untreated control eye of mice given 0.15% solution in right eye) | Left Eye Change in Diameter (μm) (Mean ± S.E.) ([2]; Table 3, left eye = untreated control eye of mice given 0.5% solution in right eye) | Left Eye Change in Diameter (μm) (Mean ± S.E.) [2, 3] | elasticity of the mouse lenses [2] | Right Eye Change in Diameter (μm) (Mean ± S.E.) ([2]; Table 2, 0.15% solution) | Right Eye Change in Diameter (μm) (Mean ± S.E.) ([2]; Table 2, 0.5% solution) | Right Eye Change in Diameter (μm) (Mean ± S.E.) ([2]; Table 2, 1.5% solution) | Left Eye Change in Diameter (μm) (Mean ± S.E.) ([2]; Table 2, left eye = untreated control eye of mice given 0.15% solution in right eye) | Left Eye Change in Diameter (μm) (Mean ± S.E.) ([2]; Table 2, left eye = untreated control eye of mice given 0.5% solution in right eye) | Left Eye Change in Diameter (μm) (Mean ± S.E.) [2, 4]
1 | O=C(O)CCCC[C@@H]1CCSS1 (racemic) [Lipoic Acid, reference compound] | 63.8 ± 6.5 | 83.8 ± 7.4 | – | – | – | – | – | – | – | – | – | – | – | – | – | – | – | – | –
2 | Cn1c(Nc2nc3ccc(OC(F)(F)F)cc3s2)nc2cc(C(=O)NCCOCCO)ccc21 [Example 46, 1-Methyl-2-(6-trifluoromethoxy-benzothiazol-2-ylamino)-1H-benzoimidazole-5-carboxylic acid [2-(2-hydroxy-ethoxy)-ethyl]-amide] | 67.4 ± 5.6 | 80.4 ± 5.3 | almost the same | significantly increased | dose dependent increase | better than or equivalent to | 42.3 ± 4.0 | 63.2 ± 5.4 | 62.7 ± 3.4 | 32.2 ± 4.3 | 34.7 ± 4.5 | 41.3 ± 3.9 | significantly increased | – | – | – | – | – | –
3 | CN(C)C(=O)CNC(=O)c1ccc2c(c1)nc(Nc1nc3ccc(C(F)(F)F)cc3s1)n2C [Example 134, 1-Methyl-2-(6-trifluoromethyl-benzothiazol-2-ylamino)-1H-benzimidazole-5-carboxylic acid dimethylcarbamoylmethyl-amide] | 59.6 ± 3.4 | 72.3 ± 4.0 | almost the same | significantly increased | dose dependent increase | better than or equivalent to | – | – | – | – | – | – | significantly increased | 46.0 ± 5.0 | 74.3 ± 8.3 | 80.0 ± 5.3 | 33.5 ± 5.9 | 51.7 ± 5.3 | 39.7 ± 6.5
4 | C[N+](C)(C)CCOC(=O)CCCC[C@@H]1CCSS1 [LACE, Lipoic Acid Choline Ester, reference compound] | – | – | – | – | – | – | – | – | 60.8 ± 2.9 | – | – | 30.1 ± 6.0 | – | – | – | 64.5 ± 4.5 | – | – | 41.5 ± 5.2
